Measurements: patent US5149716A, “Insulin derivatives, process for their preparation, their use and a pharmaceutical preparation containing them” (Hoechst Aktiengesellschaft, priority 1989, dated 1992)

Experiments:
[1] = Subcutaneous administration of a crystal suspension; type: in vivo
[2] = test system: fasting male rabbits; assay: Hypoglycemic action after intravenous administration; type: in vivo, rabbit; conditions: i.v.; for Change in blood glucose from starting value: 6.25 microliters/kg of 2.2 mg in 1.5 ml 0.9% NaCl, 5 fasting male rabbits
Protocol: 2.2 mg of anhydrous (A-1)Thr--(AO)Arg--(B30)Des--Thr human insulin were taken up in 1.5 ml of 0.9% strength NaCl solution. 2.2 mg of human insulin, also in 1.5 ml of physiological saline solution, were used as comparison and standard substance. 6.25 microliters of sample solution/kg of live weight were in each case intravenously administered to 5 fasting male rabbits having mean weights of 3.1 kg. 6.25 microliters of standard solution per kg were likewise administered i.v. to 5 other animals. After various times, blood samples were taken and examined for blood sugar concentrations. Within the limits of error, the following measurement results were found: […]

[3] = measured by isoelectric focusing; prior art (European Patent 132,769 and 132,770); cited from earlier work

(A-1)Thr--(AO)Arg--(B30)Des--Thr human insulin [(A-1)Thr-(AO)-Arg-(B30)Des-Thr insulin]
action profile [1]: acts in a sustained manner
Change in blood glucose from starting value ([2]; 1/2 h): -31%
Change in blood glucose from starting value ([2]; 1 h): -31%
Change in blood glucose from starting value ([2]; 2 h): -20%
Change in blood glucose from starting value ([2]; 3 h): -3%
hypoglycemic action ([2]; rabbits, compared with human insulin): of the same order of magnitude as that of the (unmodified) human insulin

native insulin: unmodified native insulin
isoelectric point [3]: 5.4

human insulin
Change in blood glucose from starting value ([2]; 1/2 h): -28%
Change in blood glucose from starting value ([2]; 1 h): -27%
Change in blood glucose from starting value ([2]; 2 h): -18%
Change in blood glucose from starting value ([2]; 3 h): -11%
Change in blood glucose from starting value ([2]; 4 h): -6%

proinsulin
isoelectric point [3]: 5.4
